# Data taken from patent US9157904B2, “Wnt antagonists and methods of treatment and screening” (OncoMed Pharmaceuticals, Inc., priority 2010, dated 2015).
# How the values were obtained:
# Assay type in all cases: in vivo, NOD/SCID mice
# C28 colon tumor = C28 colon tumor xenograft, FZD8-Fc variants (Example 17); details: C28 established tumors; 15 mg/kg i.p. twice a week; after three weeks of treatment
# Protocol: Dissociated C28 colon tumor cells (10,000 cells) were injected subcutaneously into 6-8 week old male NOD/SCID mice. Tumors were allowed to grow for 56 days until they reached an average volume of 175 mm^3. The mice were randomized (n=10 per group) and treated with FZD8-Fc constructs 54F03, 54F23, 54F26, or a control antibody at a dose of 15 mg/kg twice a week. Administration of the FZD8-Fc variants and control antibody was performed via injection into the intraperitoneal cavity. Tumor growth was monitored and tumor volumes were measured with electronic calipers at the indicated time points. Data are expressed as mean±S.E.M.
# PN4 pancreas tumor = PN4 pancreas tumor xenograft, tumor growth; details: FZD8-Fc 15 mg/kg i.p. twice weekly, vs control antibody
# Protocol: The anti-tumor activity of FZD8-Fc (54F03) was evaluated in the PN4 pancreas tumor xenograft model. Dissociated OMP-PN4 cells (50,000 per animal) were injected subcutaneously into 6-8 week old male NOD/SCID mice. Tumor growth was monitored weekly and tumor measurements were initiated once tumors were palpable. On day 50, mice with average tumor volumes of 137 mm^3 were randomized into 4 groups of 10 animals each. Animals were injected with either control antibody, FZD8-Fc (15 mg/kg), gemcitabine (2 mg/kg) or a combination of FZD8-Fc and gemcitabine. Administration of the FZD8-Fc and gemcitabine was performed via injection into the intra-peritoneal cavity, once weekly (gemcitabine) or twice weekly (FZD8-Fc). Tumors were measured twice a week and tumor volume was determined using the formula ½(a×b^2); where a=length, and b=breadth. Data are expressed as mean and mean±S.E.M. Group means were compared using Student's two-tailed, unpaired t test.
# PE13 breast tumor = PE13 breast tumor xenograft, tumor growth; details: FZD8-Fc 5 mg/kg i.p. twice a week, single agent
# Protocol: Dissociated PE13 breast tumor cells (50,000 per animal) were injected subcutaneously into the mammary fat pads of NOD/SCID mice. Mice were monitored weekly and tumors were allowed to grow until they were approximately 106 mm^3. On day 27 post cell injection the mice were randomized into four treatment groups (n=10 mice/group) and treated with control antibody, FZD8-Fc (54F03), taxol or a combination of FZD8-Fc and taxol. Taxol was administered intraperitoneally at a dose of 7.5 mg/kg once a week and FZD8-Fc was administered intraperitoneally at a dose of 5 mg/kg twice a week.
# PN13 tumors = experiment: Muc16 immunohistochemistry of treated PN13 tumors; details: vs control antibody
# Protocol: The cell differentiation capability of FZD8-Fc was also evaluated in the OMP-PN13 pancreas tumor xenograft model. Dissociated OMP-PN13 cells (50,000 per animal) were injected subcutaneously into 6-8 week old male NOD/SCID mice. Tumor growth was monitored weekly and tumor measurements were initiated once tumors were palpable. On day 40 mice with average tumor volume of 114 mm^3 were randomized into 4 groups of 10 animals each. Animals were injected with either control antibody or FZD8-Fc (15 mg/kg). Administration of the FZD8-Fc and control antibody was performed via injection into the intraperitoneal cavity, twice weekly. After 19 days of treatment, the tumors were excised and immunohistochemistry analysis was performed using standard techniques. Briefly, tumors were fixed in formalin, embedded in paraffin, and tumor sections of 4 μm thickness were cut. After deparaffinization and hydration, the tumor sections were subjected to an antigen retrieval process in Tris buffer (pH 9.5). Sections were incubated with hydrogen peroxide (Sigma-Aldrich, St Louis, Mo.) for 10 minutes to block endogenous peroxidases. […]
# Tumor sections from PN13 tumors treated with control antibody or FZD8-Fc were obtained and treated as described above. […] The bound antibody was detected using the immunohistochemistry protocol described above.
substance,measurement,setting,value
54F03: Fri domain of human FZD8 fused to human IgG1 Fc with GRA linker; SEQ ID NO:1,reduction of tumor growth as compared to control antibody,C28 colon tumor,48%
same,reduction in tumor growth,PN4 pancreas tumor,66%
same,reduction of tumor growth relative to control antibody,PE13 breast tumor,20%
same,cells expressing Muc16,PN13 tumors,increase in cells expressing Muc16
